Test results as given in patent US7842710B2, “Carboxamides” (Bayer Cropscience AG, priority 2004, dated 2010).
Blank lines part the entries; values can stand above or below the compound they belong to.

Columns and labels:
Venturia inaequalis = assay: Venturia test (apple)/protective; assay type: in vivo; details: protective, application rate 100 g/ha, evaluation ten days after inoculation, 0% = control, 100% = no infestation
Experimental: (§1) [table] To produce an appropriate active ingredient preparation, one part by weight of the active substance is mixed with the specified quantities of solvent and emulsifying agent, and the concentrate is diluted with water to the desired concentration. Young plants are sprayed with the active ingredient preparation at the specified application rate to test the effectiveness of protection. After the sprayed coating has dried, the plants are inoculated with an aqueous conidia suspension of the apple scab pathogen Venturia inaequalis and are then kept in an incubator at 20° C. and 100% relatively humidity for one day. Then the plants are placed in the greenhouse at about 21° C. with relative humidity of about 90%. The evaluation is performed ten days after the inoculation. A degree of effectiveness rating of 0% corresponds to the control, with 100% indicating no infestation observed.

[1] = logP determination by HPLC on a reverse phase column (C18), EEC Directive 79/831 Annex V.A8; assay type: physicochemical; details: pH 2 as printed, HPLC C18, 43° C.
Alternaria solani = assay: Alternaria test (tomato)/protective; assay type: in vivo; details: protective, application rate 750 g/ha, evaluation seven days after inoculation, 0% = control, 100% = no infestation
Experimental: [table] To produce an appropriate active ingredient preparation, one part by weight of the active substance is mixed with the specified quantities of solvent and emulsifying agent, and the concentrate is diluted with water to the desired concentration. Young tomato plants are sprayed with the active ingredient preparation at the specified application rate to test the effectiveness of protection. One day after treatment, the plants are inoculated with a spore suspension of Alternaria solani and are kept for 24 hours at 100% relatively humidity and 20° C. Subsequently, the plants are kept at 96% relatively humidity and a temperature of 20° C. The evaluation is performed seven days after the inoculation. A degree of effectiveness rating of 0% corresponds to the control, with 100% indicating no infestation observed.

Podosphaera leucotricha = assay: Podosphaera test (apple)/protective; assay type: in vivo; details: protective, application rate 100 g/ha, evaluation ten days after inoculation, 0% = control, 100% = no infestation
Experimental: as §1, with “spore” for “conidia”, “mildew” for “scab”, “Podosphaera leucotricha.” for “Venturia inaequalis and are then kept in an incubator at 20° C. and 100% relatively humidity for one day.”, “23°” for “21°”, “70%.” for “90%.”

Botrytis cinerea = assay: Botrytis test (bean)/protective; assay type: in vivo; details: protective, application rate 500 g/ha, evaluation two days after inoculation, 0% = control, 100% = no infestation
Experimental: [table] To produce an appropriate active ingredient preparation, one part by weight of the active substance is mixed with the specified quantities of solvent and emulsifying agent, and the concentrate is diluted with water to the desired concentration. Young plants are sprayed with the active ingredient preparation at the specified application rate to test the effectiveness of protection. After the sprayed coating has dried, two small pieces of agar with cultured Botrytis cinerea are placed on each leaf. The inoculated plants are placed in a darkened chamber at about 20° C. and 100% relatively humidity. Two days after the inoculation, the size of the infestation spots on the leaves is evaluated. A degree of effectiveness rating of 0% corresponds to the control, with 100% indicating no infestation observed.

Compound: CCCC(C)SC(C)c1ccccc1NC(=O)c1sc(C)nc1C(F)(F)F (stereo not shown) [drawing 486]
Degree of effectiveness in % (Venturia inaequalis): 89%

chromatographic logP [1]: 1.99
Compound: CC(C)S(=O)(=O)C(C)c1ccccc1[N+](=O)[O-] (stereo not shown) [VII-4, 1-[1-(isopropylsulfonyl)ethyl]-2-nitrobenzene]

Compound: CC(C)OCc1ccccc1NC(=O)c1cn(C)nc1C(F)(F)F [drawing 515]
Degree of effectiveness in % (Alternaria solani): 95%

Compound: CCC(C)SC(C)c1ccccc1NC(=O)c1cn(C)nc1C(F)F (stereo not shown) [drawing 484]
Degree of effectiveness in % (Podosphaera leucotricha): 94%

Compound: Cc1nn(C)c(F)c1C(=O)Nc1ccccc1C(C)SC(C)C (stereo not shown) [drawing 482]
Degree of effectiveness in % (Podosphaera leucotricha): 91%

Compound: Cc1nn(C)c(F)c1C(=O)Nc1ccccc1C(C)SC(C)C (stereo not shown) [drawing 485]
Degree of effectiveness in % (Venturia inaequalis): 95%

Compound: CC(C)SC(C)c1ccccc1NC(=O)c1cn(C)nc1C(F)F (stereo not shown) [drawing 483]
Degree of effectiveness in % (Podosphaera leucotricha): 84%

Compound: CCC(C)SC(C)c1ccccc1NC(=O)c1c(C)nn(C)c1F (stereo not shown) [drawing 517]
Degree of effectiveness in % (Alternaria solani): 95%

Compound: CC(C)SC(C)c1ccccc1NC(=O)c1cn(C)nc1C(F)(F)F (stereo not shown) [drawing 488]
Degree of effectiveness in % (Botrytis cinerea): 84%

Compound: CC(C)SC(C)c1ccccc1NC(=O)c1cn(C)nc1C(F)F (stereo not shown) [drawing 489]
Degree of effectiveness in % (Botrytis cinerea): 100%

Compound: CCC(C)SC(C)c1ccccc1NC(=O)c1cn(C)nc1C(F)(F)F (stereo not shown) [drawing 491]
Degree of effectiveness in % (Botrytis cinerea): 100%

Compound: Cc1nn(C)c(F)c1C(=O)Nc1ccccc1C(C)SC(C)C (stereo not shown) [drawing 516]
Degree of effectiveness in % (Alternaria solani): 90%

Compound: CCC(C)SC(C)c1ccccc1NC(=O)c1cn(C)nc1C(F)F (stereo not shown) [drawing 487]
Degree of effectiveness in % (Venturia inaequalis): 99%
